This is an account of results in patent publication US7241905B2, “Dioxin analogues and methods and kits for searching out dioxins-decomposing organisms or enzymes or dioxin-decomposing enzyme genes” (Forestry and Forest Products Research Institute, priority 2001, dated 2007).

What all share (assay type): cell-based
Assay [1] deals with Fomitopsis palustris. In words: Degradation of dioxin in fungal culture, measured with a dioxin immunoassay kit. The following applies: F. palustris culture (negative control fungus), 0.5 ppm, cultured 20 days, attributed to non-specific binding to fungal cells. The method, then:
(§1) Pleurotus pulumonairus, which has proven to cause the most intense fluorescence in Examples 3 and 4, was examined for its ability to degrade dioxin.
(§2) As in Examples 3 and 4, Pleurotus pulumonairus was cultured in a culture medium containing glucose and peptone and, on day 7, 2,3,7,8-tetrachlorodioxin was added to the medium at a final concentration of 0.5 ppm. The fungus was subsequently cultured for 20 days. After the culturing period, the culture medium containing the fungus was freeze-dried and was subjected to extraction by refluxing with hexane. Hexane was then removed by distillation and the remaining culture was diluted 200-fold with 200 ml methanol containing 100 ppm Triton X-100. Using a High Performance Dioxin Immunoassay Kit (Cape Technologies, United States) according to the manufacturer's instruction, the concentration of dioxin was measured to determine the degradation rate of dioxin. A control shown in Table 2 is the above-described culture medium with only 2,3,7,8-tetrachlorodioxin added. Fomitopsis palustris was used as a negative control.

Assay [2] deals with Pleurotus pulumonairus. Described as above. The following applies: P. pulumonairus culture; 0.5 ppm; cultured 20 days; control medium without fungus 0%. The method, then:
as §1, §2

The next assay relates to Coriolus versicolor. Description: Screening of wood-rotting fungi for degradation of the esculetin-type dioxin analogue (fluorescence of metabolites). The following applies: C. versicolor culture; substrate 1 ppm; day 7; excitation 350 nm, emission 450 nm; control medium without fungus 1370. How it is done:
(§3) Different species of wood-rotting fungi (i.e., Grammothele fuligo WD844, Phanerochaete crassa WD1694, Phanerochaete chrysosporium ME446, Fomitopsis palustris, Coriolus versicolor, and Pleurotus pulumonairus) were used as test subjects and were screened for the ability to degrade the dioxin analogue obtained in Example 1 (esculetin-type analogue).
(§4) Each subject fungal species, which had been pre-cultured on potato agar and stamped out of the agar using a cork borer, was inoculated onto 10 ml modified NS medium (3% glucose, 1% peptone, inorganic salts, pH 5.0) in a 100 ml Erlenmeyer flask and was cultured for 5 to 7 days at 28° C. Subsequently, a 100 μl DMSO solution containing the substrate (esculetin-type dioxin analogue obtained in Example 1) at a final concentration of 1 ppm was added to the culture. The solution was added so that the concentration of DMSO in the medium was 1%. Samples of the culture solution were collected at predetermined time intervals (i.e., 1, 3, and 5 days after the addition of the substrate). To a 100 μl portion of each sample, 1.9 ml of an alkaline buffer (100 mM glycine, 100 mM sodium hydroxide, pH 10.0) was added. The sample mixtures were then exposed to long-range UV light (365 nm) as excitation light and were visually screened for those emitting fluorescence. On day 7, the samples were irradiated with excitation light of 350 nm and, using a fluorescence spectrophotometer, the intensity of fluorescence was measured at 450 nm. A control shown in Table 1 is the above-described culture medium with only dioxin analogue (esculetin-type) added.

Assay [3] relates to Fomitopsis palustris. Described as above. The note with it: F. palustris culture; substrate 1 ppm; day 7; excitation 350 nm, emission 450 nm; control medium without fungus 1370. The method, then:
as §3, §4

A further assay has as its system Grammothele fuligo WD844. Described as above. The following applies: G. fuligo WD844 culture; substrate 1 ppm; day 7; excitation 350 nm, emission 450 nm; control medium without fungus 1370. How it is done:
as §3, §4

The subject of assay [4] is Phanerochaete chrysosporium ME446. Described as above. The note with it: P. chrysosporium ME446 culture; substrate 1 ppm; day 7; excitation 350 nm, emission 450 nm; control medium without fungus 1370. The method, then:
as §3, §4

Assay [5] has as its system Phanerochaete crassa WD1694. The assay is described as above. The note with it: P. crassa WD1694 culture; substrate 1 ppm; day 7; excitation 350 nm, emission 450 nm; control medium without fungus 1370. How it is done:
as §3, §4

The subject of assay [6] is Pleurotus pulumonairus. The assay is described as above. The following applies: P. pulumonairus culture; substrate 1 ppm; day 7; excitation 350 nm, emission 450 nm; control medium without fungus 1370. The method, then:
as §3, §4

Assay [7] relates to Pleurotus pulumonairus. In words: Screening of wood-rotting fungi for degradation of the naphthalene-type dioxin analogue (visual fluorescence). The note with it: P. pulumonairus culture; substrate 1 ppm; samples 1, 3 and 5 days after addition; UV 365 nm; compared with the other five fungi. How it is done:
Different species of wood-rotting fungi (i.e., Grammothele fuligo WD844, Phanerochaete crassa WD1694, Phanerochaete chrysosporium ME446, Fomitopsis palustris, Coriolus versicolor, and Pleurotus pulumonairus) were used as test subjects and were screened for the ability to degrade the dioxin analogue obtained in Example 2 (naphthalene-type analogue).
as §4, with “pH5.0)” for “pH 5.0)”, “naphthalene-type” for “(esculetin-type”, “2” for “1)”, “μportion” for “μl portion”, “pH10.0)” for “pH 10.0)”, “fluorescence.” for “fluorescence. On day 7, the samples were irradiated with excitation light of 350 nm and, using a fluorescence spectrophotometer, the intensity of fluorescence was measured at 450 nm. A control shown in Table 1 is the above-described culture medium with only dioxin analogue (esculetin-type) added.”

With `Clc1cc2c(cc1Cl)Oc1cc(Cl)c(Cl)cc1O2` [2,3,7,8-tetrachlorodioxin], the Degradation rate in the assay with Fomitopsis palustris [1] was found to be 9%; with Fomitopsis palustris [1] (listed as dioxin), 9%; in the assay on Pleurotus pulumonairus [2], 31%.
Turning to `Cc1cc(=O)oc2cc3c(cc12)Oc1cc(Cl)c(Cl)cc1O3` [Example 1], the Fluorecsence intensity in the assay with Coriolus versicolor was 1601; in the assay with Fomitopsis palustris [3], 1314; with Grammothele fuligo WD844, 1639; in assay [4], 1619; in [5], 1419; with Pleurotus pulumonairus [6], 2203.
Take `Clc1cc2c(cc1Cl)Oc1cc3ccccc3cc1O2` [Example 2]: the “Fluorescence emission, visually screened” value in the assay on Pleurotus pulumonairus [7] is recorded as “most intense fluorescence emission”.
